This note sets out measurements from US20080113063A1, “MICRONUTRIENT SUPPLEMENT” (priority 2006, published 2008).

Molecules are shown by their SMILES.

Series [1] can be described thus: Soluble copper versus pH on titration of TBCC mother liquor with NH4OH. The class given is physicochemical. Conditions: pH about 5.6, room temperature, ammonium chloride mother liquor. On the procedure:
The starting material used for this example was mother liquor remaining after the production of tribasic copper chloride (TBCC) from spent circuit board chemical etchants. The particular sample of mother liquor was slightly acidic, contained several hundred grams per liter of ammonium chloride and about 12 g/L of dissolved copper. The series of tests were conducted at room temperature. A 400 mL sample was titrated with NH4OH solution having a specific gravity of 0.93 and containing about 16% NH3 by weight. The pH and soluble copper concentrations were measured after each increment of NH4OH solution added. The results are illustrated in FIG. 4. Precipitation of copper initiated at a pH of about 4.1 and continued until the pH reached about 5.5. It was apparent that the copper amine chloride salt was forming at least within the pH range of 4.5 to 5.6. As expected from the stoichiometry of Equation 3, about 1 mole of copper was precipitated for every 2 moles of ammonia added. For this particular series of tests, the minimum solubility of copper was about 1,000 mg/L at a pH of about 5.6. As more ammonium hydroxide was added to raise the pH above 5.6, the copper amine chloride salt dissolved to form a navy blue soluble copper tetrammine complex. At a pH above about 7.2 virtually all of the copper ammine chloride salt had dissolved. […]

Series [2] has as its system male avian broiler chicks. As to the kind of experiment: Bioavailability of zinc in chicks fed a zinc-free basal corn-soybean diet plus zinc source, 20-day experiment. The class given is in vivo. The method, then: An experiment was conducted to compare the bioavailability of zinc from zinc diammine chloride (ZDC or Zn(NH3)2Cl2) with that of reagent grade zinc sulfate heptahydrate (ZSH or ZnSO4.7H2O). A zinc-free basal corn-soybean diet was formulated. The zinc sources were added to the basal diet at doses of 4 mg Zn per kg and 8 mg Zn per kg. The basal and experimental diets were mixed using a horizontal mixer for basal diet and a Hobart mixer for individual treatments. All diets were fed as a mash feed. Eighty male avian broiler chicks were used in the 20-day experiment. The test birds were randomly divided into 20 pens of 4 birds each. The birds were housed in thermostatically controlled, stainless steel battery cages with raised wire flooring in an environmentally controlled facility. Environmental conditions for the birds (i.e., floor space, temperature, lighting, feeder and water space) were similar for all test groups. The chicks were pretested for the first three days after hatching; and then they were switched to the basal diet until the start of the study at day eight. Water that had been deionized and distilled and feed was available for ad libitum consumption.
All feed added to the pens was recorded. Feed was weighed back at the conclusion of the trial and the feed intake was calculated. The ratio of weight gain to feed consumed was calculated for the period using the average weight gain of birds per treatment divided by the average feed consumption for the treatment throughout the test period.

As to `N.N.[Cl][Cu][Cl]` [CDC, copper diammine chloride], the “minimum solubility of copper” value in series [1] is “about 1,000 mg/L”.
`N.N.[Cl][Zn][Cl]` [ZDC, zinc diammine chloride]: in series [2] (4 mg Zn per kg feed), the “improvement of overall weight gain compared to the control” value is “about 37%” and the “improvement of weight gain per unit of feed compared to the control” value is “about 24%”. In series [2] (8 mg Zn per kg feed), the “improvement of overall weight gain compared to the control” value is around 75% and the “improvement of weight gain per unit of feed compared to the control” value is given as around 28%. Besides, in series [2] (Zn 4 mg/kg added to basal diet), the “Feed Intake” value came out at 189.8 g/chick, the “Gain:Feed” value is 523 g/kg and the “Weight Gain” value was 99.3 g/chick. For the same compound, in series [2] (Zn 8 mg/kg added to basal diet), the “Feed Intake” value came out at 235.3 g/chick, the “Gain:Feed” value was found to be 538 g/kg and the “Weight Gain” value is 126.5 g/chick.
Regarding `O.O.O.O.O.O.O.O=S(=O)([O-])[O-].[Zn+2]` [ZnSO4•7H2O, zinc sulfate heptahydrate, reference compound], in series [2] (Zn 4 mg/kg added to basal diet), the “Feed Intake” value is listed as 201.8 g/chick, the “Gain:Feed” value amounted to 497 g/kg and the “Weight Gain” value is on record as 100.5 g/chick. Further, in series [2] (Zn 8 mg/kg added to basal diet), the “Feed Intake” value came to 233.5 g/chick, the “Gain:Feed” value was 514 g/kg and the “Weight Gain” value is 119.8 g/chick.
